What all share (type): in vivo
Data set [1] concerns root-knot nematodes (Meloidogyne spp.). Put plainly: Petri dish nematocidal activity on hatched root-knot nematodes. As to conditions: for Number of killed root-knot nematodes: 15 nematodes; for Nematocidal efficiency (%): within 3 days; for Nematocidal efficiency on root-knot nematodes (%): geraniol concentration 685 ppm. As for the experimental part:
The nematodes used in the experiments were Meloidogyne spp. (hatched from eggs from infected roots of melons from farms in Seongju-gun, Gyeongsangbuk-do, Korea), and were propagated using tomato plants from Ecowin Co. Ltd. and used for experiments.
The tomato roots infected with root-knot nematodes were washed with running water and were then cut to a size of about 1 cm, after which 50 g of the cut roots was placed in a 500 ml round-bottom flask containing 200 ml of 0.5% sodium hypochloride (NaOCl), stopped with a rubber stopper, and shaken vigorously for 3 min to sterilize the roots and at the same time burst the egg bag. Thereafter, the solution was passed through a sieve in which 200 mesh was superimposed on 500 mesh, and washed with distilled water, so the eggs of the root-knot nematodes from which the NaOCl solution was removed were recovered.
Next, the eggs of the root-knot nematodes thus recovered were surface-sterilized with 0.5% NaOCl for 10 min, washed thoroughly with sterile distilled water, placed in a phosphate buffer (1%) containing sterilized normal saline, and hatched in an incubator at 25° C.
Thereafter, […], 2 to 3 ml thereof was poured into a Petri dish, after which 15 hatched root-knot nematodes were placed in the Petri dish, and nematocidal activity was measured and the results thereof are shown in Table 1 below.
Nematocidal activity on root-knot nematodes (treatment concentration: […]) was evaluated in the same manner as in Example 1, with the exception that Ostericum koreanum, clove, Myristica fragrans, Acorus gramineus, Kaempferia galanga and Amomum cardamomum L. extracts were used, in lieu of the naturally derived materials. Here, Ostericum koreanum, clove, Myristica fragrans, Acorus gramineus, Kaempferia galanga and Amomum cardamomum L. were purchased from a medicinal plant retailer located in the Daegu area and then extracted using ethanol according to a typical method. Specifically, each medicine was finely crushed, mixed with ethanol at a ratio of 1:5, and extracted at 180 rpm at room temperature for 48 hr, after which as much ethanol as possible was concentrated using a concentrator.
Nematocidal activity on root-knot nematodes was evaluated in the same manner as in Example 1, with the exception that a neem extract was used in lieu of the naturally derived materials.

The subject of the next data set is tomato seedlings. Kind of data set: Phytotoxicity on tomato seedlings in pots, drenching treatment, observed with the naked eye. The note with it: 50 ml drench, 1 week after treatment. As for the experimental part: Sterilized soil was uniformly mixed, 300 g thereof was then placed in each pot, and tomato seedlings not infected with root-knot nematodes were transplanted thereto.
Sterilized soil was uniformly mixed, 300 g thereof was then placed in each pot, and tomato seedlings not infected with root-knot nematodes were transplanted thereto. The sample prepared in Example 4 was diluted to a standard amount or a multiple thereof for each treatment group, and then 50 ml thereof was used for drenching treatment.

The test system of the next data set is root-lesion nematodes. Put plainly: Petri dish nematocidal activity on root-lesion nematodes. As to conditions: geraniol 2,000 ppm; for Number of killed nematodes: 15 root-lesion nematodes. The text has this: (§1) Petri dishes, followed by measurement of nematocidal activity.
For a further data set, the system named is spiral nematodes. Put plainly: Petri dish nematocidal activity on spiral nematodes. The note with it: geraniol 2,000 ppm; for Number of killed nematodes: 15 spiral nematodes.
Excerpt: as §1

Another data set has as its system cyst nematodes. Put plainly: Petri dish nematocidal activity on cyst nematodes. As to conditions: geraniol 2,000 ppm; for Number of killed nematodes: 15 cyst nematodes.
Excerpt: as §1

4 compounds from patent publication US11278024B2 (priority 2017, dated 2022) can be followed below.

Marks after values point to notes of the source that are not given here.

For the compound `O=C1CCC[C@@H]2[C@H]3CCC[N+]4([O-])CCC[C@@H](CN12)[C@@H]34` (stereo partly shown) [Oxymatrine, oxymatrine, reference compound], the “Number of killed root-knot nematodes” value worked out at 7 in data set [1] (2,000 ppm, 1 day); 9 in data set [1] (2,000 ppm, 2 days); 10 in data set [1] (2,000 ppm, 3 days). Also, in data set [1] (2,000 ppm), the “Nematocidal efficiency (%)” value came out at 66.7%.
The corresponding values for `C/C=C(\C)C(=O)O[C@H]1C[C@@H](OC(C)=O)[C@@]2(C(=O)OC)CO[C@H]3[C@@H](O)[C@@](C)([C@]45O[C@@]4(C)[C@H]4C[C@@H]5O[C@@H]5OC=C[C@@]54O)[C@H]4[C@]1(CO[C@]4(O)C(=O)OC)[C@@H]32` [Azadirachtin, azadirachtin, reference compound] are 7, 8, 10 and 66.7%.
Take pyrethrin [reference compound]: the “Number of killed root-knot nematodes” value was found to be 5 in data set [1] (2,000 ppm, 1 day); 6 in data set [1] (2,000 ppm, 2 days); 11 in data set [1] (2,000 ppm, 3 days). Also, the “Nematocidal efficiency (%)” value in data set [1] (2,000 ppm) came out at 73.3%.
Turning to `CC(C)=CCC/C(C)=C/CO` [Geraniol, geraniol], the “Number of killed root-knot nematodes” value in data set [1] (100 ppm, 1 day) turned out to be 5; in data set [1] (100 ppm, 2 days), 7; in data set [1] (100 ppm, 3 days) it was 7; in data set [1] (200 ppm, 1 day), 5; in data set [1] (200 ppm, 2 days), 7; in data set [1] (200 ppm, 3 days), 13. The “Number of killed root-knot nematodes” value came out at 5 in data set [1] (333 ppm, 1 day); 6 in data set [1] (333 ppm, 2 days); 15 in data set [1] (333 ppm, 3 days); 5 in data set [1] (500 ppm, 1 day); 10 in data set [1] (500 ppm, 2 days); 15 in data set [1] (500 ppm, 3 days). Further, the “Number of killed root-knot nematodes” value is 10 in data set [1] (1,000 ppm, 1 day); 15 in data set [1] (1,000 ppm, 2 days); 15 in data set [1] (3,000 ppm, 1 day); 15^a in data set [1] (10,000 ppm, 1 day). Further, the “Nematocidal efficiency (%)” value in data set [1] (100 ppm) worked out at 46.7%; in data set [1] (200 ppm), 86.7%; in data set [1] (333 ppm), 100%; in data set [1] (500 ppm), 100%; in data set [1] (1,000 ppm) it was 100%; in data set [1] (2,000 ppm), 100%. Also, the “Nematocidal efficiency (%)” value in data set [1] (3,000 ppm) and in data set [1] (10,000 ppm) was 100% throughout. Also, the “Nematocidal efficiency on root-knot nematodes (%)” value in data set [1] (1 day) is recorded as 72.5%; in data set [1] (2 days) it was 93.6%; in data set [1] (3 days) it was 100.0%. In addition, in data set [1] (same geraniol content (685 ppm)), the “Nematocidal effect of geraniol alone relative to palmarosa oil containing the same amount of geraniol” value is on record as “about 4.2 times”. Besides, the “Extent of phytotoxicity (0-5)” value in the data set on tomato seedlings (100 ppm), in the data set on tomato seedlings (200 ppm), in the data set on tomato seedlings (330 ppm), in the data set with tomato seedlings (500 ppm), in the data set on tomato seedlings (1,000 ppm) and in the data set with tomato seedlings (2,000 ppm) was 0 throughout. Moreover, the “Extent of phytotoxicity (0-5)” value in the data set on tomato seedlings (3,000 ppm) amounted to 0; in the data set on tomato seedlings (4,000 ppm) it was 5; in the data set on tomato seedlings (5,000 ppm), 5; with tomato seedlings (10,000 ppm), 5; with tomato seedlings (20,000 ppm), 5. Besides, the Phytotoxicity symptom result in the data set with tomato seedlings (100 ppm), in the data set on tomato seedlings (200 ppm), in the data set with tomato seedlings (330 ppm), in the data set with tomato seedlings (500 ppm), with tomato seedlings (1,000 ppm) and in the data set on tomato seedlings (2,000 ppm) was “No” throughout. Moreover, the Phytotoxicity symptom entry in the data set on tomato seedlings (3,000 ppm) is “No”; in the data set on tomato seedlings (4,000 ppm), “Withered”; in the data set on tomato seedlings (5,000 ppm) it was “Withered”; in the data set on tomato seedlings (10,000 ppm) it was “Withered”; with tomato seedlings (20,000 ppm) it was “Withered”. Besides, the “Number of killed nematodes” value with root-lesion nematodes (1 day) is recorded as 14^a; in the data set on root-lesion nematodes (2 days) it was 15; with spiral nematodes (1 day) it was 7; with spiral nematodes (2 days), 9; in the data set with spiral nematodes (3 days) it was 13; in the data set on cyst nematodes (1 day), 8. For the same compound, the “Number of killed nematodes” value in the data set with cyst nematodes (2 days) is given as 11; in the data set with cyst nematodes (3 days) it was 12. Besides, the Nematocidal efficiency amounted to 100% in the data set on root-lesion nematodes (within 3 days), 86.7% in the data set on spiral nematodes (within 3 days) and 80% in the data set on cyst nematodes (within 3 days).
